Experimental data from PubChem BioAssay (NCI).
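The concentration for 50% growth inhibition is given as GI50. The concentration for full growth arrest is given as TGI.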

What was measured:
Assay in all cases: growth of human tumour cells (NCI), 384-well format
A498 renal = system: A498 renal
A549 NSCLC = system: A549 NSCLC
ACHN renal = system: ACHN renal
BT-549 breast = system: BT-549 breast
CAKI-1 renal = system: CAKI-1 renal
CCRF-CEM leukemia = system: CCRF-CEM leukemia
COLO 205 colon = system: COLO 205 colon
DU-145 prostate = system: DU-145 prostate
HCT-116 colon = system: HCT-116 colon
HCT-15 colon = system: HCT-15 colon
HL-60(TB) leukemia = system: HL-60(TB) leukemia
HOP-62 NSCLC = system: HOP-62 NSCLC
HOP-92 NSCLC = system: HOP-92 NSCLC
HT29 colon = system: HT29 colon
IGROV1 ovarian = system: IGROV1 ovarian
K-562 leukemia = system: K-562 leukemia
KM12 colon = system: KM12 colon
LOX IMVI melanoma = system: LOX IMVI melanoma
M14 melanoma = system: M14 melanoma
MCF7 breast = system: MCF7 breast
MDA-MB-231 breast = system: MDA-MB-231 breast
MDA-MB-468 breast = system: MDA-MB-468 breast
MOLT-4 leukemia = system: MOLT-4 leukemia
NCI-H226 lung = system: NCI-H226 lung
NCI-H23 lung = system: NCI-H23 lung
NCI-H322M lung = system: NCI-H322M lung
NCI-H460 NSCLC = system: NCI-H460 NSCLC
NCI-H522 lung = system: NCI-H522 lung
NCI/ADR-RES ovarian = system: NCI/ADR-RES ovarian
OVCAR-4 ovarian = system: OVCAR-4 ovarian
OVCAR-5 ovarian = system: OVCAR-5 ovarian
OVCAR-8 ovarian = system: OVCAR-8 ovarian
PC-3 prostate = system: PC-3 prostate
SF-268 CNS = system: SF-268 CNS
SK-MEL-2 melanoma = system: SK-MEL-2 melanoma
SK-MEL-28 melanoma = system: SK-MEL-28 melanoma
SK-MEL-5 melanoma = system: SK-MEL-5 melanoma
SNB-19 CNS = system: SNB-19 CNS
SNB-75 CNS = system: SNB-75 CNS
SR leukemia = system: SR leukemia
SW-620 colon = system: SW-620 colon
T-47D breast = system: T-47D breast
TK-10 renal = system: TK-10 renal
U251 glioblastoma = system: U251 glioblastoma
UACC-257 melanoma = system: UACC-257 melanoma
UACC-62 melanoma = system: UACC-62 melanoma
UO-31 renal = system: UO-31 renal

## C[C@@H](O)[C@H](NC(=O)N[C@@H](CC(N)=O)c1nc([C@@H](N)CO)no1)C(=O)O
A498 renal
  GI50: > 100 µM
  TGI: > 100 µM
A549 NSCLC
  GI50: > 100 µM
  TGI: > 100 µM
ACHN renal
  GI50: > 100 µM
  TGI: > 100 µM
BT-549 breast
  GI50: > 100 µM
  TGI: > 100 µM
CAKI-1 renal
  GI50: > 100 µM
  TGI: > 100 µM
CCRF-CEM leukemia
  GI50: > 100 µM
  TGI: > 100 µM
COLO 205 colon
  GI50: > 100 µM
  TGI: > 100 µM
DU-145 prostate
  GI50: > 100 µM
  TGI: > 100 µM
HCT-116 colon
  GI50: > 100 µM
  TGI: > 100 µM
HCT-15 colon
  GI50: > 100 µM
  TGI: > 100 µM
HL-60(TB) leukemia
  GI50: > 100 µM
  TGI: > 100 µM
HOP-62 NSCLC
  GI50: > 100 µM
  TGI: > 100 µM
HOP-92 NSCLC
  GI50: > 100 µM
  TGI: > 100 µM
HT29 colon
  GI50: > 100 µM
  TGI: > 100 µM
IGROV1 ovarian
  GI50: > 100 µM
  TGI: > 100 µM
K-562 leukemia
  GI50: > 100 µM
  TGI: > 100 µM
KM12 colon
  GI50: > 100 µM
  TGI: > 100 µM
LOX IMVI melanoma
  GI50: > 100 µM
  TGI: > 100 µM
M14 melanoma
  GI50: > 100 µM
  TGI: > 100 µM
MCF7 breast
  GI50: > 100 µM
  TGI: > 100 µM
MDA-MB-231 breast
  GI50: > 100 µM
  TGI: > 100 µM
MDA-MB-468 breast
  GI50: > 100 µM
  TGI: > 100 µM
MOLT-4 leukemia
  GI50: > 100 µM
  TGI: > 100 µM
NCI-H226 lung
  GI50: > 100 µM
  TGI: > 100 µM
NCI-H23 lung
  GI50: > 100 µM
  TGI: > 100 µM
NCI-H322M lung
  GI50: > 100 µM
  TGI: > 100 µM
NCI-H460 NSCLC
  GI50: > 100 µM
  TGI: > 100 µM
NCI-H522 lung
  GI50: > 100 µM
  TGI: > 100 µM
NCI/ADR-RES ovarian
  GI50: > 100 µM
  TGI: > 100 µM
OVCAR-4 ovarian
  GI50: > 100 µM
  TGI: > 100 µM
OVCAR-5 ovarian
  GI50: > 100 µM
  TGI: > 100 µM
OVCAR-8 ovarian
  GI50: > 100 µM
  TGI: > 100 µM
PC-3 prostate
  GI50: > 100 µM
  TGI: > 100 µM
SF-268 CNS
  GI50: > 100 µM
  TGI: > 100 µM
SK-MEL-2 melanoma
  GI50: > 100 µM
  TGI: > 100 µM
SK-MEL-28 melanoma
  GI50: > 100 µM
  TGI: > 100 µM
SK-MEL-5 melanoma
  GI50: > 100 µM
  TGI: > 100 µM
SNB-19 CNS
  GI50: > 100 µM
  TGI: > 100 µM
SNB-75 CNS
  GI50: > 100 µM
  TGI: > 100 µM
SR leukemia
  GI50: > 100 µM
  TGI: > 100 µM
SW-620 colon
  GI50: > 100 µM
  TGI: > 100 µM
T-47D breast
  GI50: > 100 µM
  TGI: > 100 µM
TK-10 renal
  GI50: > 100 µM
  TGI: > 100 µM
U251 glioblastoma
  GI50: > 100 µM
  TGI: > 100 µM
UACC-257 melanoma
  GI50: > 100 µM
  TGI: > 100 µM
UACC-62 melanoma
  GI50: > 100 µM
  TGI: > 100 µM
UO-31 renal
  GI50: > 100 µM
  TGI: > 100 µM
